Experiment: isoelectric pH of the peptide (isoelectric precipitation)
Assay type: physicochemical
Conditions: pH at which the peptide was precipitated after chromatography
From the text: Arg^34GLP-1(7-37) was expressed in yeast (S. cerevisiae) by conventional recombinant technology as described elsewhere (WO 98/08871). Arg^34GLP-1(7-37) in the fermentation broth was then purified by conventional reversed phase chromatography and subsequently precipitated at the isoelectric pH of the peptide, i.e. at pH 5.4. The precipitate was isolated by centrifugation. Following another RP-LC purification step and isoelectric precipitation, the Arg^34GLP-1(7-37) peptide was acylated as decribed in WO 00/55119 to give the GLP-1 derivative Arg^34Lys^26N^ε(γ-Glu(N^α-hexadecanoyl))GLP-1(7-37).
L17K, K30R-GLP2(1-33) was expressed in yeast (S. cerevisiae) by conventional recombinant technology in a similar manner as described in WO 98/08871 for GLP-1 peptides. L17K, K30R-GLP2(1-33) in the fermentation broth was then purified by conventional aniaon exchange and reversed phase chromatography and subsequently precipitated at the isoelectric pH of the peptide, i.e. at pH 4. The precipitate was isolated by centrifugation. D-His-L17K, K30R-GLP2(1-33) was prepared by solid phase synthesis.

Row | Substance | isoelectric pH of the peptide [pH]
1 | Arg^34GLP-1(7-37) | 5.4
2 | L17K, K30R-GLP2(1-33) (HADGSFSDEMNTILDNKAARDFINWLIQTRITD; Glucagon-like peptide 2; UniProt P01275 146-178, looked up, variant L17K K30R) [GLP-2 analogue expressed in yeast] | 4

From patent US7749955B2, “Separation of polypeptides comprising a racemized amino acid” (Novo Nordisk A/S, priority 2003, dated 2010)
